Values after ≈ are worked out from the molar mass of the structure shown. Like-named read-outs stand apart in the source and are kept apart here. Values belong to the molecule of their own block, whether it stands above or below them.
Assays:
[1] = Thermodynamic solubility measurement by HPLC in HDAC buffer / DMSO; assay type: physicochemical; conditions: for thermodynamic solubility (in words): solubility protocol of b230; for solubility at 48 h: 24.5 °C, thermodynamic from solid, ambient (24-25° C.)
Description: DHP-1 in up to 20% DMSO/HDAC was insoluble. In brief, HPLC (Agilent 1100 series) was used to perform the test. Calibration curves were established using concentration range covering the estimated solubility's. The samples were then analyzed by a well-calibrated HPLC method. The linearity was measured by R-values at least >0.99. The estimated detection limit was around 0.002 mg/mL (2 μg/mL) based on acceptable N/S ratio. Over saturated samples were prepared by dosing excess compounds into the solvent mixtures of interest. The samples were equilibrated at ambient (24-25° C.) for 48 hours and then analyzed by the same HPLC method.

recombinant human SIRT3 = biological target: T1, recombinant human SIRT3 (Homo sapiens, UniProt Q9NTG7); assay: High-throughput fluorimetric initial rate / endpoint assay of SIRT3 deacetylation with fluorolabeled p53 peptide; assay type: biochemical
T1 construct: purchased Enzo Life Sciences AK 557
T1 sequence (Q9NTG7 1-399): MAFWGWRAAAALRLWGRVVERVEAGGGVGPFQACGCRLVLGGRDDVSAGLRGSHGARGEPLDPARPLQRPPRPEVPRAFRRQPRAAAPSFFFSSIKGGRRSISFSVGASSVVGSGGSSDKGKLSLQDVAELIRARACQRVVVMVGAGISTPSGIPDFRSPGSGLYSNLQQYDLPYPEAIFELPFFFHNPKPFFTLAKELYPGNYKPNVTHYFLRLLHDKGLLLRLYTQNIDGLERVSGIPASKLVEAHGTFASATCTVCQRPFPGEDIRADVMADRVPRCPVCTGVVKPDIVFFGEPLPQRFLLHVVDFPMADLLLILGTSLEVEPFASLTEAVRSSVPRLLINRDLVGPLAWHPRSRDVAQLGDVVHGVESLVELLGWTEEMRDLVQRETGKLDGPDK
Description: The specified concentration of the test compound was chosen to be 50 uM. Initial deacylation rates at DHP-1's were measured at varying [NAD+] and [NAM] according to the following methods.
The steady state parameters (Km and kcat) and catalytic efficiency (kcat/Km) of deacetylase activity of recombinant human SIRT3 were determined using a fluorimetric assay. The deacetylation activities were measured by using the SIRT3 Fluorimetic Drug Discovery Kit (AK 557, Enzo Life Sciences). This assay system allows detection of a fluorescent signal upon deacetylation of an acetylated substrate peptide, comprising amino acids 317-320 of human p53 (Gln-Pro-Lys-LysAc) for SIRT3, when treated with developer. The intensity of fluorescence was measured on a fluorometric microplate reader (Fluoroskan AscentH FL, Thermo Lab Systems) with excitation set at 355 nm and emission detection set at 460 nm. The initial rate of the NAD^+-dependent deacetylation activity of SIRT3 enzyme was measured at different concentrations of NAD^+. The reactions were carried out at 37° C. in a 50 μl reaction volume containing 50 mM Tris/Cl (pH=8), 137 mM NaCl, and 250 uM fluorolabeled peptide substrate. Reactions carried out in the presence of DHP-1 included 5% DMSO. The raw data were fitted to the Michaelis-Menten equation and defined inhibition models by using GraphPad Prism (GraphPad Software, Inc, CA) to obtain the kinetic constants. […] In assays of allosteric modulators, artifacts reported in the presence of the fluorescent label were later shown to occur due to the hydrophobic fluorophore participating in the modulator's allosteric activation mechanism.
This assay was used to measure the potency of modulation of SIRT3 by DHP-1 in a high-throughput endpoint format. All reagents are diluted on ice in the following reaction buffer: 50 mM Tris/Cl, pH 8.0, 137 mM NaCl, 2.7 mM KCl, 1 mM MgCl2, and 1 mg/mL BSA. Thus for each reaction well, 5U of SIRT3 enzyme is added to 500 μM NAD^+, 250 μM fluorolabeled peptide substrate, and DHP-1 at a given concentration (0-100 uM) in a total reaction volume of 50 μL. After an hour incubation at 37° C., the reaction is stopped upon addition of 1× Developer for a final reaction volume of 100 μL. The reaction is incubated at 37° C. for an additional 15 min and then read on the plate reader. Positive controls contained only enzyme, substrate, NAD^+, and DMSO while background controls contained substrate, NAD^+, and DMSO only.

Human Sirt3 protein [2] = biological target: T2, Human Sirt3 protein (Homo sapiens, UniProt Q9NTG7); assay: Label-free HPLC endpoint assay of Sirt3 deacetylation activity (DHP-1, DHP-2; FdL/p53 peptide); assay type: biochemical; conditions: for % product formation / % Sirt3 Activity: 50 uM DHP-1 in 5% DMSO; for % Sirt3 Activity: control = 100.0
T2 construct: hexa-histidine (N); host or cells: E. coli Arctic Express (DE3)
T2 sequence (Q9NTG7 102-399): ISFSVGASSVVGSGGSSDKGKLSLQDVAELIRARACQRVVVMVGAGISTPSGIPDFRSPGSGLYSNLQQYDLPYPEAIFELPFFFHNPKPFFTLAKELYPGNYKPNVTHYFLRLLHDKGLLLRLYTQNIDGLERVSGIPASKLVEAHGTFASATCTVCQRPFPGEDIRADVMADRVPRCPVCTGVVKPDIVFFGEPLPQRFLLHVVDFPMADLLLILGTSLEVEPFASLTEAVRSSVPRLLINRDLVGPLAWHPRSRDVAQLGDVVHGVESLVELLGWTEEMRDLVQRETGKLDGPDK
Description: Reactions for DHP-1 used a similar protocol, but were carried out at a single concentration of modulator and varying concentrations of NAD+ and fluorolabeled peptide at 37° C. in a 50 μl reaction volume containing 50 mM Tris/Cl (pH=8), 137 mM NaCl, and 5% DMSO. [DHP] was 50 uM.

Human Sirt3 protein [3] = biological target: T2, Human Sirt3 protein; assay: Binding analysis by microscale thermophoresis (MST); conditions: 5% DMSO, 25° C.
Description: Human Sirt3 protein was labeled with Alexa647 fluorophore by NHS ester chemistry in 20 mM HEPES, 200 mM NaCl, 0.5 mM TCEP at pH 7.5. A 2:1 molar excess of reactive dye was used over protein, in order to preferentially label one lysine within the protein. Free dye was removed using a size exclusion column and the labeled protein (Sirt3 NT647) was buffer exchanged into 50 mM Tris-HCl pH 8.0, 137 mM NaCl, 2.7 mM KCl, 1 mM MgCl2, 5% DMSO, 0.05% Pluronic F-127. A final concentration of 2 nM Sirt3 NT647 was titrated with varying concentrations of the modulator and thermophoresis was measured (excitation wavelength 650 nm, emission wavelength 670 nm, LED-power 15%, laser-power 80%) using a Monolith NT. 115 Pico (NanoTemper Technologies) at 25° C. in the absence and presence of various concentrations of NAD+, acetylated and de-acetylated peptide (K122-MnSOD peptide). Dissociation constants were determined with GraFit7 (Erithacus Software) by nonlinear fitting using a 1:1 binding model. Each experiment was repeated at least twice.

Sir2Af2 = biological target: T3, Sir2Af2 (Archaeoglobus fulgidus, UniProt O30124); conditions: cited from earlier work
T3 sequence (O30124 1-253): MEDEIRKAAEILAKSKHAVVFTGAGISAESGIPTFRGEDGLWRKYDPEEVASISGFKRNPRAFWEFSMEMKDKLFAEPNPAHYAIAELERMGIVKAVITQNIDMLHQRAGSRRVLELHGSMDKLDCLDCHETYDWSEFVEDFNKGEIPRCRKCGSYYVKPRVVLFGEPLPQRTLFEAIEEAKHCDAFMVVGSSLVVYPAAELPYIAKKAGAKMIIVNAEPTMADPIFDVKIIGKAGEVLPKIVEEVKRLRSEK

[4] = 100 uM NAD + 100 uM FdL Peptide
[5] = 200 uM NAD + 100 uM FdL Peptide
[6] = 500 uM NAD + 250 uM FdL Peptide
[7] = 2% DMSO in HDAC buffer, aqueous buffer, 2% DMSO/HDAC
[8] = 5% DMSO in HDAC buffer, aqueous with cosolvent or surfactant or cyclodextrin, 5% DMSO/HDAC

Compound: C=CCc1ccc(O)c(-c2ccc(O)c(CC=C)c2)c1 [Honokiol, 5,3′-Diallyl-2,4′-dihydroxybiphenyl, reference compound]
solubility at 48 h [1, 7]: 41 µg/mL (≈ 0.154 mM)
solubility at 48 h [1, 8]: 120 µg/mL (≈ 0.451 mM)
Kd (Human Sirt3 protein [3]; read-out: Kd, binding to SIRT3 apoenzyme): 1010 ± 129 nM
Kd (Human Sirt3 protein [3]; read-out: Kd, binding to the enzyme:NAD+ complex): 1670 ± 125 nM

Compound: NC(=O)c1cccnc1 [NAM, nicotinamide]
ΔGbind,NAM (Sir2Af2): -4.1 kcal/mol

Compound: NC(=O)c1ccncc1 [isonicotinamide, reference compound]
outcome of hit identification (recombinant human SIRT3; same sirtuin enzyme and peptide substrate, competitive inhibitor of base exchange): screened out

Further lines, with some results ahead:

thermodynamic solubility (in words) [1]: thermodynamically insoluble
Solubility ([1]; up to 20% DMSO/HDAC): insoluble
Alpha (apparent, best-fit value) (recombinant human SIRT3; 50 uM DHP-1, global fit of mixed inhibition model, varying NAD+ and NAM): 1.933
Vmax (apparent, best-fit value) (recombinant human SIRT3; 50 uM DHP-1, global fit of mixed inhibition model, varying NAD+ and NAM, 250 uM fluorolabeled peptide): 0.2118
net effect on catalytic turnover (vapp versus v) (recombinant human SIRT3; fluorimetric assays): vapp>v
SIRT3 activation in label-free assay (Human Sirt3 protein [2]; 50 uM DHP-1, conditions of Table 2, threshold vapp/v=1.10): does not activate SIRT3
% product formation (Human Sirt3 protein [2]; [4]): 5.776%
% Sirt3 Activity (Human Sirt3 protein [2]; [4]): 96.7%
% product formation (Human Sirt3 protein [2]; [5]): 9.463%
% Sirt3 Activity (Human Sirt3 protein [2]; [5]): 92.3%
% product formation (Human Sirt3 protein [2]; [6]): 2.111%
% Sirt3 Activity (Human Sirt3 protein [2]; [6]): 99.5%
Compound: CCOC(=O)C1=CN(Cc2ccccc2)C=C(C(=O)OCC)C1c1ccccc1 [DHP-1, N-Benzyl-3,5-dicarbethoxy-4-phenyl-1,4-dihydropyridine]

solubility at 48 h [1, 7]: 1740 µg/mL (≈ 5.2 mM)
solubility at 48 h [1, 8]: 2140 µg/mL (≈ 6.38 mM)
solubility at 48 h ([1]; 10% DMSO in HDAC buffer, aqueous with cosolvent or surfactant or cyclodextrin, 10% DMSO/HDAC): 2200 µg/mL (≈ 6.55 mM)
solubility at 48 h ([1]; aqueous buffer, 100% HDAC buffer): 2300 µg/mL (≈ 6.87 mM)
thermodynamic solubility (in words) [1]: thermodynamically soluble
SIRT3 activation in label-free assay (Human Sirt3 protein [2]; 3 μM NAD+ and 250 μM peptide substrate, 0-400 μM DHP-2, threshold vapp/v=1.10): does not activate SIRT3
Compound: O=C(O)C1=CN(Cc2ccccc2)C=C(C(=O)O)C1c1ccccc1 [DHP-2, N-Benzyl-3,5-dicarboxy-4-phenyl-1,4-dihydropyridine]
rate enhancement versus predicted for Km,NAD+ reduction (x = 0.7, 0.8, 0.9) (Human Sirt3 protein [2]; any concentration tested, label-free assay (FIG. 8 vs FIG. 10)): does not induce a rate enhancement exceeding those predicted

Reference: patent US11118211B2, “Methods for the design of mechanism-based sirtuin activating compounds” (CHAKRABARTI ADVANCED TECHNOLOGY LLC, priority 2015, dated 2021)
